Reference: patent US12162859B2, “Crystalline and amorphous forms of a compound for the targeted degradation of estrogen receptor” (Arvinas Operations, Inc., priority 2020, dated 2024)
Values after ≈ are worked out from the molar mass of the structure shown.

Columns and labels:
Assay type in all cases: physicochemical
[1] = Hygroscopicity (DVS water uptake at 90% RH)
[2] = Thermodynamic solubility of Form I in solvents and aqueous pH media; details: for solubility thermodynamic: thermodynamic from solid
[3] = 1 week stability of Form I under storage conditions
[4] = Relative stability of the four identified polymorphic forms
Excerpt: A summary of the relevant characteristics of Form I is found below in Table 10: […]

O=C1CC[C@H](N2Cc3cc(N4CCN(CC5CCN(c6ccc([C@@H]7c8ccc(O)cc8CC[C@@H]7c7ccccc7)cc6)CC5)CC4)ccc3C2=O)C(=O)N1 [Form I, (S)-3-(5-(4-((1-(4-((1R,2S)-6-hydroxy-2-phenyl-1,2,3,4-tetrahydronaphthalen-1-yl)phenyl)piperidin-4-yl)methyl)piperazin-1-yl)-1-oxoisoindolin-2-yl)piperidine-2,6-dione]
Hygroscopicity (water uptake at 90% RH) ([1]; 90% RH): 1.7%
hygroscopicity ([1]; at 90% RH): 1.7 wt. %
Post-DVS XRPD ([1]; solid form by XRPD after DVS): Form I
Solid form recovered in thermodynamic solubility test ([2]; 1-Butanol): Form I
solubility thermodynamic ([2]; 1-butanol, organic solvent or mixture): 500 µg/mL (≈ 691 µM)
Solid form recovered in thermodynamic solubility test ([2]; Acetone): Form I (PO)
solubility thermodynamic ([2]; DCM:methanol (90:10 v/v), organic solvent or mixture): > 67000 µg/mL
Solid form recovered in thermodynamic solubility test ([2]; Dichloromethane): Form I (PO)
Solid form recovered in thermodynamic solubility test ([2]; Ethanol): Form I
Solid form recovered in thermodynamic solubility test ([2]; Methanol): Form I
solubility thermodynamic ([2]; N,N′-dimethylacetamide, organic solvent or mixture): > 100000 µg/mL
solubility thermodynamic ([2]; THF, organic solvent or mixture): > 67000 µg/mL
solubility thermodynamic ([2]; acetone, organic solvent or mixture): 4000 µg/mL (≈ 5530 µM)
solubility thermodynamic ([2]; aqueous pH medium, pH 1, simulated gastric fluid): 100 µg/mL (≈ 138 µM)
solubility thermodynamic ([2]; aqueous pH medium, pH 4, aqueous buffer): < 50 µg/mL
solubility thermodynamic ([2]; aqueous pH medium, pH 5, aqueous buffer): < 50 µg/mL
solubility thermodynamic ([2]; aqueous pH medium, pH 6, aqueous buffer): < 50 µg/mL
solubility thermodynamic ([2]; dichloromethane, organic solvent or mixture): 14800 µg/mL (≈ 20400 µM)
solubility thermodynamic ([2]; ethanol, organic solvent or mixture): 800 µg/mL (≈ 1110 µM)
solubility thermodynamic ([2]; methanol, organic solvent or mixture): 1100 µg/mL (≈ 1520 µM)
Solid form recovered in thermodynamic solubility test ([2]; pH 1): Form I
Solid form recovered in thermodynamic solubility test ([2]; pH 4): Amorphous
Solid form recovered in thermodynamic solubility test ([2]; pH 5): Form I
Solid form recovered in thermodynamic solubility test ([2]; pH 6): Form I
1 Week Stability, solid form ([3]; 40° C./75% RH): Form I
1 Week Stability, solid form ([3]; 80° C.): Form I
1 Week Stability, solid form ([3]; Ambient): Form I
Stability relative to the other identified forms [4]: most stable
